{
  "source": "patent US20130095493A1",
  "about": "“IDENTIFICATION OF THE GENE NOTCH3 AS A NOVEL BIOMARKER FOR HUMAN METASTATIC MELANOMA” (THE JOHNS HOPKINS UNIVERSITY, priority 2011, published 2013)",
  "assay_type_in_all_cases": "cell-based, human",
  "key": {"[1]": {"tested_on": "Notch signaling (4XCBF-1 Notch luciferase reporter in GFP-1205Lu co-cultured with RFP-HUVEC)", "experiment": "Notch luciferase reporter co-culture (dual-luciferase assay)", "procedure": "GFP-1205Lu was transfected using Lipofectamine 2000 with 4XCBF-1 Notch luciferase reporter (kindly provided by Dr. Diane Hayward, Johns Hopkins University) and Renilla control plasmid (2 μg total cDNA/well). Cells were transfected for 4 hr, then harvested by trypsinization and co-cultured with RFP-HUVEC at varying ratios for 24 hr in EGM-2. Cells were washed with PBS, snap-frozen, and stored at −80° C. Co-cultures were lysed using the Dual-Luciferase Reporter Assay System (Promega) and analyzed on a 1450 Microbeta plate reader (Perkin Elmer). The specificity of Notch signaling was verified using the pan-Notch inhibitor DAPT and 0.1% DMSO as a vehicle control.\nThe transcriptional activity of Notch is mediated by the CBF-1 promoter sequence upstream of target genes. CBF-1 recruits CSL transcriptional repressors which inactivate gene expression in the absence of NICD. […] Thus, by utilizing a four-tandem repeat of CBF-1 to drive luciferase expression during a transient transfection, canonical Notch signaling can be directly quantified by chemiluminescence activity in a target cell population. […]\nTo quantify Notch signaling within the model system, GFP-1205Lu was transiently transfected with 4XCBF-1 Notch luciferase reporter (PJH23A) and co-cultured with RFP-HUVEC for 24 hours. […]"}, "[2]": {"tested_on": "RFP-HUVEC networking phenotype in GFP-1205Lu:RFP-HUVEC co-culture", "experiment": "Melanoma-endothelial co-culture networking phenotype", "details": "10 μM DAPT vs 0.1% DMSO; 1:1 GFP-1205Lu:RFP-HUVEC co-culture", "procedure": "For co-culture experiments, various GFP-labeled melanoma cell lines were co-cultured with RFP-HUVEC at a 1:1 ratio to 95% confluency in EGM-2. Melanoma cells grown alone were cultured in EGM-2 to control for medium effects. Cells were co-cultured for 48 hours before sorting by FACS into pure populations. The sorted cell populations were divided and stored at −80° C. for mRNA and protein analysis.\n(§1) In previous investigations, we observed RFP-HUVEC communicating in a concerted fashion with metastatic melanoma cells to create a networking phenotype during 48 hrs of co-culture. It was thought that understanding the molecular determinants of this communication could lead to pharmacological targets for the prevention of melanoma-endothelial crosstalk in the clinical setting. To determine whether Notch signaling is involved in mediating the networking phenotype, GFP-1205Lu and RFP-HUVEC were co-cultured in 0.1% DMSO (vehicle) or 10 μM DAPT. These cells were also cultured alone in identical media to determine whether these conditions elicited any aberrant growth not attributable to co-culture."}, "[3]": {"tested_on": "GFP-1205Lu or RFP-HUVEC grown alone", "experiment": "Growth of cells cultured alone under DAPT", "details": "10 μM DAPT vs 0.1% DMSO", "excerpt": "as §1"}},
  "note": "“Also recorded” adds a separate entry of the source.",
  "data": [
    {"compound": "C[C@H](NC(=O)Cc1cc(F)cc(F)c1)C(=O)N[C@H](C(=O)OC(C)(C)C)c1ccccc1", "note": "[DAPT]", "values": [
      {"measurement": "Inhibition of quantified Notch signaling", "setting": "[1]; 10 μM DAPT vs 0.1% DMSO vehicle", "result": "effectively inhibiting all quantified Notch signaling"},
      {"measurement": "Effect on co-culture stimulated Notch signaling (luciferase reporter)", "setting": "[1]; GFP-1205Lu with 4XCBF-1 reporter, RFP-HUVEC co-culture 24 hours, DMSO vehicle had no effect", "result": "completely abrogated the co-culture stimulated Notch signaling; also recorded: completely abrogated all Notch signaling observed"},
      {"measurement": "Effect on RFP-HUVEC networking phenotype in co-culture", "setting": "[2]", "result": "drastically affected; also recorded: RFP-HUVEC network disruption"},
      {"measurement": "Effect on growth of GFP-1205Lu or RFP-HUVEC grown alone", "setting": "[3]", "result": "little effect; also recorded: no discernable difference"}
    ]}
  ]
}
